Assay: Transport activity, carboxyfluorescein release from vesicles, Hill analysis
Conditions: EYPC⊃CF vesicles, no counterion activator
Description: Transport activities for these novel PTDMs were determined using the standard biophysical assay well documented in the CPP literature. (Hennig, et al. 2008 J. Am. Chem. Soc. 130, 10338.) Specifically, 5(6)-carboxyfluorescein (CF) was used as a fluorescent probe in egg yolk phosphatidylcholine large unilamellar vesicles (EYPC-LUVs). The activity of these transporters increased with increasing polymer concentration at a constant vesicle concentration as detected by CF emission intensity, yielding plots of fluorescence intensity versus polymer concentration (FIG. 42, FIG. 43). […] (Sakai, et al. 2003 J. Am. Chem. Soc. 125, 14348; Sakai, et al. 2006 Soft Matter 2, 636; Sakai, et al. 2005 Chembiochem 6, 114; Hennig, et al. 2008 J. Am. Chem. Soc. 130, 10338; Nishihara, et al. 2005 Org. Biomol. Chem., 3, 1659; Perret, et al. 2005 J. Am. Chem. Soc. 127, 1114.) This analysis gave Ymax (maximal CF release relative to complete release by Triton X-100), EC50 (effective polymer concentration needed to reach Ymax/2), and the Hill coefficient n (see Table 2).
Preparation of EYPC-LUVs⊃CF. […]
Polymer Activity in EYPC-LUVs⊃CF. […] The time-dependent change in fluorescence intensity It (λex=492 nm, λem=517 nm) was monitored during the addition of polymer (20 μL stock solution in DMSO) at t=100 s, and addition of 40 μl 1.2% (aq.) triton X-100 at the end of every experiment (t=900 s) (FIG. 42). […]

polyarginine
transport activity: inactive

From patent US10493159B2, “Protein transduction domains mimics” (University of Massachusetts, priority 2010, dated 2019)
